Earlier results on 1 molecule are cited in EP3850074B1, “BENEFIT AGENT DELIVERY PARTICLES” (Unilever Global IP Ltd, priority 2018, dated 2020).

For this series the following is noted: at 25°C and at atmospheric pressure.

With `Nc1nc(N)nc(N)n1` [melamine, 2,4,6-triamino-1,3,5-triazine], the “solubility in distilled water” value is on record as “about 0.3 g/L”.
